# In patent US9611514B2, “Method for selection of hDIS3 PIN domain inhibitors and use of hDIS3 PIN domain inhibitors for cancer treatment” (INSTYTUT BIOCHEMII I BIOFIZYKI POLSKIEJ AKADEMII NAUK, priority 2013, dated 2017):
# Legend:
# [1] = target: T1, isolated PIN domain of hDIS3 (Homo sapiens, UniProt Q9Y2L1); experiment: hDIS3 PIN domain endonucleolytic activity assay (RNA substrate digestion, denaturing PAGE, fluorimaging); type: biochemical; details: 80 μM concentration; 5′ fluoresceine-labeled ss17-(A)34 substrate; 1 mM manganese
# T1 construct: made in house
# T1 sequence (Q9Y2L1 1-217): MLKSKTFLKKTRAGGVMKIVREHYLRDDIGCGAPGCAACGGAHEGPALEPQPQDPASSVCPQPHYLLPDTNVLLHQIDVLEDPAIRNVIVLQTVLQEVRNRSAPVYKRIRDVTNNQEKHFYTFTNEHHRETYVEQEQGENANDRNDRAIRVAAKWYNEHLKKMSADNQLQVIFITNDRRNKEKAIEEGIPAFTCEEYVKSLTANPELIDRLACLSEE
# Experimental: FIGS. 11A-B. 2-hydroxy-(4H)-isoquinoline-1,3-dione (AClLAHYL) inhibits the endonucleolytic activity of isolated PIN domain of hDIS3. A) SDS-PAGE analysis of the recombinant hDIS3 PIN domain; B) Activity assay. 5′ fluoresceine-labeled ss17-(A)34 substrate was incubated in a buffer containing 1 mM manganese with recombinant hDIS3 PIN domain in the presence or absence of 2-hydroxy-(4H)-isoquinoline-1,3-dione. A control reaction was also performed, which contained the inhibitor but lacked any added protein. Reactions were terminated at the indicated time points, followed by denaturing PAGE and fluorimaging.
# In vitro enzymatic assays of hDIS3 exoribonucleolytic activity were performed in 10 mM Tris-HCl, pH 8.0; 75 mM NaCl; 1 mM 2-mercaptoethanol, 100 μM MgCl2. Protein concentration was 0.1 μM, while substrate concentration was 0.2 μM or 2 μM for duplex and unstructured RNA molecules, respectively. For gel-based analyses, reactions were performed at 37° C. for the indicated times and then terminated by formamide loading dye Reaction products were resolved in denaturing 20% polyacrylamide, 8 M urea, 1xTBE gels. In the case of TLC-based experiment, samples were collected by mixing aliquots of the reaction mixtures with 1 μl of 0.5 M EDTA and subsequently analysed by running them on PEI-cellulose plates (Schleicher & Schuell) in 0.5 M LiCl/1M formic acid, using non-radioactive UMP as a marker. […]
# [2] = system: yeast harboring G833R mutation (dis3-G833R); experiment: Yeast growth assay, serial dilutions spotted on YPD plates; type: cell-based, S. cerevisiae; details: 1 mM in YPD plates, 30° C., 60 hours
# Experimental: (§1) FIG. 12. […] Serial dilutions of indicated yeast strains were spotted on YPD plates and YPD plates with 2-hydroxy-(4H)-isoquinoline-1,3-dione (at 1 mM concentration) and incubated at 30° C. for 60 hours.
# (§2) Yeast strains described above were grown in complete YPD medium at 30° C. overnight until OD600 reached 0.2 before spotting serial dilutions onto YPD plates. Cell growth was analyzed after 60 h of incubation at 25° C., 30° C. or 37° C. Analysis of viability for strains harboring mutations in both PIN and RNB domains of Dis3 was carried out by sporulation of ADZY713 and ADZY716 diploid strains, followed by tetrad dissection.
# (§3) Yeast strains harboring G833R or R847K mutations, obtained in Example II were used for growth assays. Serial dilutions of indicated yeast strains were spotted on YPD plates and YPD plates with 2-hydroxy-(4H)-isoquinoline-1,3-dione (at 1 mM concentration) and incubated at 30° C. for 60 hours.
# [3] = system: yeast harboring R847K mutation (dis3-R847K); experiment: as above; type: cell-based, S. cerevisiae; details: 1 mM in YPD plates, 30° C., 60 hours
# Experimental: as §1, §2, §3
compound,measurement,setting,value
"O=C1Cc2ccccc2C(=O)N1O [2-hydroxy-(4H)-isoquinoline-1,3-dione]",inhibition of the endonucleolytic activity of human DIS3 PIN domain,[1],efficiently inhibited
same,growth inhibition of yeast harboring G833R mutation,[2],complete growth inhibition
same,growth inhibition of yeast harboring R847K mutation,[3],complete growth inhibition
